Data set [1] deals with G-protein coupled receptor 55 (Homo sapiens, UniProt Q9Y2T6). As to the kind of experiment: blockers of GPR55 signalling, imaged – imaging, image-based, counter-screen for GPR35 antagonist project, SAR follow-up (AID 2397). Format: functional.
In data set [2] the target is T1, G-protein coupled receptor 35 (Homo sapiens, UniProt Q9HC97). Nature of the data set: inhibition of zaprinast-stimulated GPR35 beta-arrestin translocation – imaging, U2OS, beta-arrestin-GFP, zaprinast agonist, primary screen (AID 2058).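 Further: antagonist potency meaning inhibition of agonist-induced arrestin redistribution.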 Format: functional.
Data set [3] is described as follows: HEK-293T cell viability reduction – luminescence, B-cell screen hits, cytotoxicity control for BCR NF-kB inhibitor project, dose response (AID 489021).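 Further: HEK-293T cells carrying an NF-kB luciferase reporter; cells exposed to compound for about 14 hours before viability readout.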 Format: functional, cell-based.
The target in data set [4] is T1, G-protein coupled receptor 35. As to the kind of experiment: SAR Analysis for the identification of Selective Antagonists of ERK1/2 Activity in GPR35-Overexpressing U2OS Cells. [Related pubchem assays: 2079, 2058 ]. In kind it is functional, cell-based.
The nature of data set [5]: restored growth of temperature-sensitive Burl-1 yeast – whole organism, S. cerevisiae, Burl-1 ts mutant, luminescence, counter-screen for SUMOylation pathway inhibitor project, dose response (AID 463199). In kind it is functional.
In data set [6] the target is T2, Cytochrome P450 2C9 (Homo sapiens, UniProt P11712).
The next data set concerns the target CAAX prenyl protease 1 (Saccharomyces cerevisiae S288c, UniProt P47154). As to the kind of experiment: yeast CAAX protease Ste24 inhibition – biochemical, S. cerevisiae, plate reader, cherry-pick, dose response (AID 488815).
In a further data set the target is Trypsin (Sus scrofa, UniProt P00761). Nature of the data set: trypsin protease activity blockade – biochemical, quenched peptide fluorescence, cherry-pick, selectivity assay for Rce1 protease inhibitor project, dose response (AID 488789).
The target of data set [7] is T3, Delta-type opioid receptor (Homo sapiens, UniProt P41143). Nature of the data set: SAR Analysis of Antagonists of the DOR Receptor using an Image-Based Assay - Set 2. [Related pubchem assays (depositor defined):AID1777, AID1785, AID1786, AID1966, AID2133, AID2136, AID2284, AID2285, AID2357]. Format: functional.
In data set [8] the target is T3, Delta-type opioid receptor. As to the kind of experiment: SAR Analysis of Agonists of the DOR Receptor using an Image-Based Assay - Set 2. [Related pubchem assays (depositor defined):AID1777, AID1785, AID1786, AID1966, AID2133, AID2136, AID2284, AID2285, AID2370]. In kind it is functional.
In data set [9] the target is T4, Mu-type opioid receptor (Homo sapiens, UniProt P35372). Nature of the data set: SAR Analysis of Antagonists of the MOR Receptor using an Image-Based Assay - Set 2. [Related pubchem assays (depositor defined):AID1777, AID1785, AID1786, AID1966, AID2133, AID2136, AID2284, AID2285, AID2420]. In kind it is functional.
Data set [10] concerns the target T4, Mu-type opioid receptor. Nature of the data set: SAR Analysis of Agonists of the MOR Receptor using an Image-Based Assay - Set 2. [Related pubchem assays (depositor defined):AID1777, AID1785, AID1786, AID1966, AID2133, AID2136, AID2284, AID2285, AID2352]. In kind it is functional.
Data set [11] concerns the target T5, Kappa-type opioid receptor (Homo sapiens, UniProt P41145). As to the kind of experiment: SAR analysis of Antagonists of the Kappa Opioid Receptor (KOR) using an Image-Based Assay - Set 2. [Related pubchem assays (depositor defined):AID1777, AID1785, AID1786, AID1966, AID2133, AID2136, AID2284, AID2285, AID2348]. Format: functional.
Data set [12] deals with T5, Kappa-type opioid receptor. Nature of the data set: SAR analysis of Agonists of the Kappa Opioid Receptor (KOR) using an Image-Based Assay - Set 2. [Related pubchem assays (depositor defined):AID1777, AID1786, AID1966, AID2133, AID2136, AID2284, AID2285, AID2359]. Format: functional.
Data set [13] concerns the target T5, Kappa-type opioid receptor. As to the kind of experiment: SAR analysis of small molecule agonists of the kappa opioid receptor via a luminescent beta-arrestin assay - Set 2. [Related pubchem assays (depositor defined):AID1777, AID1785, AID1786, AID1966, AID2133, AID2136, AID2284, AID449737]. Format: functional.
A further data set concerns Streptococcus. As to the kind of experiment: GAS UMAA2166 growth inhibition – luminescence, BacTiterGlo, counter-screen for streptokinase expression inhibitor project, dose response (AID 1915).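 Further: potency for reduction of bacterial viability or growth.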 In kind it is functional, organism-based. On the technique in general: A counterscreen serves to expose hits that act by an unwanted route or on another target.
The target of the next data set is T6, Cytochrome P450 1A2 (Homo sapiens, UniProt P05177).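 Further: PubChem cytochrome P450 panel assay, CYP1A2 panel member.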
T6 sequence (P05177 whole entry): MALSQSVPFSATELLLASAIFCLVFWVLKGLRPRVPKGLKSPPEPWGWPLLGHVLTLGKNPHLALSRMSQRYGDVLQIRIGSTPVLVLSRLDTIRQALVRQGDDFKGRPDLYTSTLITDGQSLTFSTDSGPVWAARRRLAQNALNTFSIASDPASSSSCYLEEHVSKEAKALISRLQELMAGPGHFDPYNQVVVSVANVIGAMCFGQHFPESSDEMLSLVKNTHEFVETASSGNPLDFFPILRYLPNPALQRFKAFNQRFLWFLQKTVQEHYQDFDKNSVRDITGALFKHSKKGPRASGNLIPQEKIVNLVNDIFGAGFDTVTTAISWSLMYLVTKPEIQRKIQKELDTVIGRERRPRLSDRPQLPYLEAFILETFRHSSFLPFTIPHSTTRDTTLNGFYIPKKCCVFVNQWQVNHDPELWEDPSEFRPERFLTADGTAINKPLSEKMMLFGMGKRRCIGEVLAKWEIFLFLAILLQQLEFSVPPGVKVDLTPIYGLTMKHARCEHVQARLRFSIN

In a further data set the target is Cytochrome P450 2D6 (Homo sapiens, UniProt P10635).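 Further: CYP2D6 member of a cytochrome P450 panel assay.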
Data set [14] has as its target T2, Cytochrome P450 2C9. This is another data set of the same source.
The target of a further data set is Cytochrome P450 2C19 (Homo sapiens, UniProt P33261). Nature of the data set: Cytochrome panel assay with activity outcomes. Panel member name: p450-cyp2c19 Compounds with AC50 equal or less than 10 uM are considered active. In kind it is functional.
Data set [15] has as its system Streptococcus sp. 'group A'. Nature of the data set: Streptococcus pyogenes SK(-)GAS viability under kanamycin – luminescence, BacTiterGlo, confirmation, counter-screen for streptokinase expression inhibitor project, dose response (AID 1900). Format: functional, organism-based.
A further data set deals with T7, Streptokinase A (Streptococcus pyogenes serotype M1, UniProt P10520).
T7 sequence (P10520 whole entry): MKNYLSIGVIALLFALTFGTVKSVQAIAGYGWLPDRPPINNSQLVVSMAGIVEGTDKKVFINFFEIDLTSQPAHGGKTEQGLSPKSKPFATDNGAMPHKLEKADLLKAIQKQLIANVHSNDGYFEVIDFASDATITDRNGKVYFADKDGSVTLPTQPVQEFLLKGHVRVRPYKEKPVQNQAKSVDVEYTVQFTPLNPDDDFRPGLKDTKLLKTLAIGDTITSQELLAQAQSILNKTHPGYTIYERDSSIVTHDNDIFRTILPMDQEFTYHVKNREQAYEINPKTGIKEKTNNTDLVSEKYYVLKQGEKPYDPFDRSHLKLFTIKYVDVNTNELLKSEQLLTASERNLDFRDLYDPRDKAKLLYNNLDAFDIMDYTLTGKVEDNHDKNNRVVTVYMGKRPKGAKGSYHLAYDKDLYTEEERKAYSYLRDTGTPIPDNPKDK
As to the kind of experiment: viability-normalized secreted streptokinase activity reduction – plasminogen activation absorbance, OD405, dose response (AID 1914).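 Further: secreted streptokinase activity via plasminogen activation per viability signal from cell pellet.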 In kind it is functional, Streptococcus pyogenes M1 GAS.

Active and inactive are the calls of the source. Some results are limits rather than exact numbers.

T5 sequence (P41145 whole entry): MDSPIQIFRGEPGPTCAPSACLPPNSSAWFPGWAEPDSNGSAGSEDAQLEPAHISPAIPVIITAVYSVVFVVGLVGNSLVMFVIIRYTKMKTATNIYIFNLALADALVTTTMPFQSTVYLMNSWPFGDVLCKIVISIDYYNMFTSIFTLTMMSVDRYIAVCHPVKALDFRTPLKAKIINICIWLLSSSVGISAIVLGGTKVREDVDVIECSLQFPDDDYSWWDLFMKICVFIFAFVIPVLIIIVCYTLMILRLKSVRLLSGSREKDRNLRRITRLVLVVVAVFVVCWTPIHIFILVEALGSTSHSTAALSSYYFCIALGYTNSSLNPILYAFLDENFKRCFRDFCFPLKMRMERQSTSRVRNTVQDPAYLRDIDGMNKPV
T3 sequence (P41143 whole entry): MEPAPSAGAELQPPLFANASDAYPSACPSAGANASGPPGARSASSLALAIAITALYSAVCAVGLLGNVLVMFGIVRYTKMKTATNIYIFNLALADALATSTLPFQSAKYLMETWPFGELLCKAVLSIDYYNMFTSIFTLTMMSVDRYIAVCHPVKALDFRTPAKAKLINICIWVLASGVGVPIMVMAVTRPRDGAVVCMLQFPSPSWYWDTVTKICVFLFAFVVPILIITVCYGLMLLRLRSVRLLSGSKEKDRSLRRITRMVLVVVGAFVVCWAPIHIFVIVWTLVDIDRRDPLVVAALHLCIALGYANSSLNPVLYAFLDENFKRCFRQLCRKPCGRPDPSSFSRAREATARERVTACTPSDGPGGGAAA
T1 sequence (Q9HC97 whole entry): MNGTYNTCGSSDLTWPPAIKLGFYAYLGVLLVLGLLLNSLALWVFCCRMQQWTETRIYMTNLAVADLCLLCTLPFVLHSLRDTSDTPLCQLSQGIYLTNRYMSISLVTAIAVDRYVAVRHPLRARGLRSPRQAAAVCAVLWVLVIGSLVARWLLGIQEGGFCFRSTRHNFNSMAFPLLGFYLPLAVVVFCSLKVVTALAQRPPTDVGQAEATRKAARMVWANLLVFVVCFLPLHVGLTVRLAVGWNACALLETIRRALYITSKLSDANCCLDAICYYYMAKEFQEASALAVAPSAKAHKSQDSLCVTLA
T4 sequence (P35372 whole entry): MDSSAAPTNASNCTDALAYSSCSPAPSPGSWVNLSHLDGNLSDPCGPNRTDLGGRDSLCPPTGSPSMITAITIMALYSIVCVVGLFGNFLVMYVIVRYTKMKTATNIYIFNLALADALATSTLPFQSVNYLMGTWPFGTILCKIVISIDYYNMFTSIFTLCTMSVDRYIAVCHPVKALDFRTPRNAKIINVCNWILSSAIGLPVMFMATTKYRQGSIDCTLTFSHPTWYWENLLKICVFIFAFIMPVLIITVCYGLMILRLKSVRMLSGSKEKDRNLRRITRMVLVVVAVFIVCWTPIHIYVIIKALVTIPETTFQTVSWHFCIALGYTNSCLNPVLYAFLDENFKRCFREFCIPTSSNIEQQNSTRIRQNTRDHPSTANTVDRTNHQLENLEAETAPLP
T2 sequence (P11712 whole entry): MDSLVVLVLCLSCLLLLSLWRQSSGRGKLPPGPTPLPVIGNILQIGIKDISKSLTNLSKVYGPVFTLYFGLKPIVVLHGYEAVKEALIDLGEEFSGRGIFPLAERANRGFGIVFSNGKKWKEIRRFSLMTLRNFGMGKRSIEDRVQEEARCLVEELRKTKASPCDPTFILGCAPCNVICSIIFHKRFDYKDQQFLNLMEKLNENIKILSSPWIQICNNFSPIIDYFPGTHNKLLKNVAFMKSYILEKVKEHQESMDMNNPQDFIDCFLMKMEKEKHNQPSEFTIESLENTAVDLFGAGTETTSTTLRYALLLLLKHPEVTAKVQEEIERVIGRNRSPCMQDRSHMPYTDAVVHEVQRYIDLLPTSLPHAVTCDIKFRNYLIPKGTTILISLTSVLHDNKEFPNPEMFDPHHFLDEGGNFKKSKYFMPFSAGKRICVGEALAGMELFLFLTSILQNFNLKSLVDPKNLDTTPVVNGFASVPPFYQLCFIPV
G-protein coupled receptor 55, sequence (Q9Y2T6 whole entry): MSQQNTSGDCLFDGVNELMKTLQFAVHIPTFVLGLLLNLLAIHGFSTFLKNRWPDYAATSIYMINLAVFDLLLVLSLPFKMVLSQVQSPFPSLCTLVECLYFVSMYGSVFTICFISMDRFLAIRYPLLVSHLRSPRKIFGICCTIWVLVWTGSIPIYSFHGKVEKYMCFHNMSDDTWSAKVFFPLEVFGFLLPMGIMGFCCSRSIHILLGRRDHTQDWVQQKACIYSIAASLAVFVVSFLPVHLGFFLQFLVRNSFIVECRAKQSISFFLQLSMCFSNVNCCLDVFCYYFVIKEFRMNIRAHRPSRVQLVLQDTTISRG
Cytochrome P450 2C19, sequence (P33261 whole entry): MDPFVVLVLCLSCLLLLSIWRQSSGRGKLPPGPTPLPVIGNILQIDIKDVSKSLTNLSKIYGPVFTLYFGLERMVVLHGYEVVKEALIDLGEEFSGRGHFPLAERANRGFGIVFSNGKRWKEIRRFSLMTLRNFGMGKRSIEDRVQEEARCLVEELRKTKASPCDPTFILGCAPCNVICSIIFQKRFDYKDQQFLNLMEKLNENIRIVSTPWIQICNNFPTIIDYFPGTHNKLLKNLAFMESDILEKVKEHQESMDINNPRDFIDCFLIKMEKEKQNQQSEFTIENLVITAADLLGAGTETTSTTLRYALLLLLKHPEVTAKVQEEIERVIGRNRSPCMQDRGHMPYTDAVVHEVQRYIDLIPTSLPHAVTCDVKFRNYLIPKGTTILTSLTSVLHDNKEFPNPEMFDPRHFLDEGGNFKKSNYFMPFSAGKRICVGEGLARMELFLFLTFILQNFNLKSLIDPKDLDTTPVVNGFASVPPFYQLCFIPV
Cytochrome P450 2D6, sequence (P10635 whole entry): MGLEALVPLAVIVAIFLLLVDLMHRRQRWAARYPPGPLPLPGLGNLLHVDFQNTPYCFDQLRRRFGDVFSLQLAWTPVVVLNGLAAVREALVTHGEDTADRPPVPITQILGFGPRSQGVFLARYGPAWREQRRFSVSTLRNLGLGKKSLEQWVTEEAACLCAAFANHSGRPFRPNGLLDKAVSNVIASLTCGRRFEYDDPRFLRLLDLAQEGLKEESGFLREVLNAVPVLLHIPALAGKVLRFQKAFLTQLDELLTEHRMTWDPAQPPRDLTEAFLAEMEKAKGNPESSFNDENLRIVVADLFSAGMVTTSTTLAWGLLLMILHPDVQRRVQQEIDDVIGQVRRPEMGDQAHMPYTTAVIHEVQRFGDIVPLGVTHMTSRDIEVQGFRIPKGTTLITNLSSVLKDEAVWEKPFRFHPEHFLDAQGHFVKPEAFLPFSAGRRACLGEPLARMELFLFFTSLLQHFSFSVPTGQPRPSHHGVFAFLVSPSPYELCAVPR
Trypsin, sequence (P00761 whole entry): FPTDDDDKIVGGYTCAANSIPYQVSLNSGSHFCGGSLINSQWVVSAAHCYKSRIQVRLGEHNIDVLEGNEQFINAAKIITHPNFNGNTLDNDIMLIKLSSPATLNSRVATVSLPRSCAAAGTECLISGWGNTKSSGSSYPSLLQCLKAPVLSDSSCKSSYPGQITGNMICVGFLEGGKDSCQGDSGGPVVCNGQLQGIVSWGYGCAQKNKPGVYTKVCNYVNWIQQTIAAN
CAAX prenyl protease 1, sequence (P47154 whole entry): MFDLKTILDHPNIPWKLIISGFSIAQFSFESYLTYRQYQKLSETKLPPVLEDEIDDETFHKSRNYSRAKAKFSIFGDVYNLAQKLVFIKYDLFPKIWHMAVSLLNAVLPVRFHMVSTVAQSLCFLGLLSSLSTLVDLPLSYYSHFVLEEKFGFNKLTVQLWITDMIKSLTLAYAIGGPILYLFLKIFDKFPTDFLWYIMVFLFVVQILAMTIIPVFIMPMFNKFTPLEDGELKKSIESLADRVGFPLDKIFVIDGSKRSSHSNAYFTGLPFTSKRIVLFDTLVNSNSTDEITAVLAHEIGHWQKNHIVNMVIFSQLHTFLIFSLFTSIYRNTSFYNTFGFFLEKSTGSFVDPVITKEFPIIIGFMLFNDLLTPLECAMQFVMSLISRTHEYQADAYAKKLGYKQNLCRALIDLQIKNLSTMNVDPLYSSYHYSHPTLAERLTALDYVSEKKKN

Turning to `Cc1ccc(/C=C2\SC(=S)N(CCCC(=O)Nc3ccc(O)cc3)C2=O)cc1`, the IC50 in [1] is > 32 µM (inactive); in data set [2] it was 0.744 µM (active); in data set [3] it was > 80 µM (inactive); in data set [4], 0.253 µM (active).
In the case of `O=C(c1cc(F)ccc1F)C1CCCN(C(=O)c2ccc3nccnc3c2)C1` (configuration not stated), in data set [5], the AC50 is 78.3 µM (active).
For the compound `COc1ccc(-c2cc3ccccc3n2CC(O)CNCCO)cc1` (configuration not stated), the AC50 at Cytochrome P450 2C9 [6] was 17.8 µM (inconclusive); on CAAX prenyl protease 1, 11.5 µM (active); at Trypsin it was 17.3 µM (active).
Turning to `COc1ccc(CSc2nnc(-c3ccccn3)n2Cc2ccco2)cc1`, the IC50 (in data set [7]; at Mu-type opioid receptor [9]; in [11]) was > 32 µM (inactive) each time. Besides, the EC50 in data set [8] was > 32 µM (inactive); on Mu-type opioid receptor [10], > 32 µM (inactive); in data set [12], 12.4 µM (inactive); in data set [13], 7.69 µM (active).
For the compound `CC1(C)N=C(N)N=C(Nc2ccccc2)N1`, the EC50 was > 150 µM (not active) with Streptococcus, 1.52 µM (active) in [15] and > 150 µM (not active) at Streptokinase A. Besides, the AC50 result on Cytochrome P450 1A2 was “inactive”; at Cytochrome P450 2D6, 39.8 µM (inconclusive); on Cytochrome P450 2C9 [14], “inconclusive”; at Cytochrome P450 2C19, “inactive”.

What is called IC50 is the concentration that inhibits the measured activity by half. Broadly, the AC50 is the concentration giving half of the maximal activity seen. As usually defined, the EC50 is the concentration needed to bring the measured effect to its halfway point.

(Values after ChEMBL document CHEMBL1201862, “PubChem BioAssay data set” (2004).)
